Test in all cases: relative viability (nuclei count vs DMSO), 5 days (fraction); higher = more cells survive
Compound in the test “17-AAG + Phenformin”: C=CCNC1=C2C[C@@H](C)C[C@H](OC)[C@H](O)[C@@H](C)/C=C(\C)[C@H](OC(N)=O)[C@@H](OC)/C=C\C=C(/C)C(=O)NC(=CC1=O)C2=O [17-AAG] + N=C(N)NC(=N)NCCc1ccccc1 [Phenformin] (partner 250 µM)
The method, boiled down: (§1)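 Relative viability was taken as the ratio of nuclei in treated wells to nuclei in vehicle wells. Lung cancer cell lines in 1536-well plates received compounds by pin tool one day after seeding, either one drug alone or a fixed anchor-drug dose plus five library-drug doses (not always all listed) in √10 steps. Nuclei were counted on 4× images after 5 days of treatment, and values are medians of duplicate plates.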

Compound in the test “17-AAG + Pictilisib”: C=CCNC1=C2C[C@@H](C)C[C@H](OC)[C@H](O)[C@@H](C)/C=C(\C)[C@H](OC(N)=O)[C@@H](OC)/C=C\C=C(/C)C(=O)NC(=CC1=O)C2=O [17-AAG] + CS(=O)(=O)N1CCN(Cc2cc3nc(-c4cccc5[nH]ncc45)nc(N4CCOCC4)c3s2)CC1 [Pictilisib] (partner 1 µM)
The gist of the method:
as §1

Compound in the test “17-AAG + Decitabine”: C=CCNC1=C2C[C@@H](C)C[C@H](OC)[C@H](O)[C@@H](C)/C=C(\C)[C@H](OC(N)=O)[C@@H](OC)/C=C\C=C(/C)C(=O)NC(=CC1=O)C2=O [17-AAG] + Nc1ncn([C@H]2C[C@H](O)[C@@H](CO)O2)c(=O)n1 [Decitabine] (partner 2 µM)
The method, boiled down:
as §1

Compound in the test “17-AAG + Palbociclib”: C=CCNC1=C2C[C@@H](C)C[C@H](OC)[C@H](O)[C@@H](C)/C=C(\C)[C@H](OC(N)=O)[C@@H](OC)/C=C\C=C(/C)C(=O)NC(=CC1=O)C2=O [17-AAG] + CC(=O)c1c(C)c2cnc(Nc3ccc(N4CCNCC4)cn3)nc2n(C2CCCC2)c1=O [Palbociclib] (partner 0.5 µM)
The method, boiled down: as §1

Turning to NCI-H23, the relative viability in the test with 17-AAG + Phenformin (first compound 0.00128 µM) worked out at 0.665; in the test with 17-AAG + Phenformin (first compound 0.004048 µM), 0.769; with 17-AAG + Phenformin (first compound 0.0128 µM) it was 0.575; with 17-AAG + Phenformin (first compound 0.04048 µM), 0.319; in the test with 17-AAG + Phenformin (first compound 0.128 µM), 0.155; with 17-AAG + Pictilisib (first compound 0.00128 µM), 0.468. For the same cell line, the relative viability was 0.517 in the test with 17-AAG + Pictilisib (first compound 0.004048 µM); 0.224 in the test with 17-AAG + Pictilisib (first compound 0.0128 µM); 0.179 in the test with 17-AAG + Pictilisib (first compound 0.04048 µM); 0.145 with 17-AAG + Pictilisib (first compound 0.128 µM); 0.294 with 17-AAG + Decitabine (first compound 0.00128 µM); 0.226 in the test with 17-AAG + Decitabine (first compound 0.004048 µM). Also, the relative viability with 17-AAG + Decitabine (first compound 0.0128 µM) amounted to 0.251; with 17-AAG + Decitabine (first compound 0.04048 µM), 0.185; with 17-AAG + Decitabine (first compound 0.128 µM), 0.16; with 17-AAG + Palbociclib (first compound 0.00128 µM) it was 0.503; with 17-AAG + Palbociclib (first compound 0.004048 µM) it was 0.456; in the test with 17-AAG + Palbociclib (first compound 0.0128 µM), 0.292. Further, the relative viability with 17-AAG + Palbociclib (first compound 0.04048 µM) came to 0.192; with 17-AAG + Palbociclib (first compound 0.128 µM) it was 0.14.
Turning to EMC-BAC-2, the relative viability with 17-AAG + Phenformin (first compound 0.00128 µM) worked out at 0.576; with 17-AAG + Phenformin (first compound 0.004048 µM) it was 0.535; with 17-AAG + Phenformin (first compound 0.0128 µM), 0.427; with 17-AAG + Phenformin (first compound 0.04048 µM) it was 0.261; in the test with 17-AAG + Phenformin (first compound 0.128 µM), 0.189; with 17-AAG + Pictilisib (first compound 0.00128 µM) it was 0.605. Besides, the relative viability with 17-AAG + Pictilisib (first compound 0.004048 µM) is 0.598; with 17-AAG + Pictilisib (first compound 0.0128 µM), 0.586; with 17-AAG + Pictilisib (first compound 0.04048 µM), 0.274; in the test with 17-AAG + Pictilisib (first compound 0.128 µM), 0.202; in the test with 17-AAG + Decitabine (first compound 0.00128 µM) it was 0.98; with 17-AAG + Decitabine (first compound 0.004048 µM) it was 0.939. For the same cell line, the relative viability with 17-AAG + Decitabine (first compound 0.0128 µM) stood at 0.692; in the test with 17-AAG + Decitabine (first compound 0.04048 µM), 0.31; in the test with 17-AAG + Decitabine (first compound 0.128 µM) it was 0.219; in the test with 17-AAG + Palbociclib (first compound 0.00128 µM), 0.544; with 17-AAG + Palbociclib (first compound 0.004048 µM), 0.525; in the test with 17-AAG + Palbociclib (first compound 0.0128 µM) it was 0.521. The results for the relative viability with 17-AAG + Palbociclib (first compound 0.04048 µM) and in the test with 17-AAG + Palbociclib (first compound 0.128 µM) were 0.462 and 0.4, respectively.
As to LOU-NH91, the relative viability with 17-AAG + Phenformin (first compound 0.00128 µM) was 0.592; in the test with 17-AAG + Phenformin (first compound 0.004048 µM), 0.513; in the test with 17-AAG + Phenformin (first compound 0.0128 µM) it was 0.383; with 17-AAG + Phenformin (first compound 0.04048 µM), 0.376; in the test with 17-AAG + Phenformin (first compound 0.128 µM), 0.307; with 17-AAG + Pictilisib (first compound 0.00128 µM), 0.573. Besides, the relative viability with 17-AAG + Pictilisib (first compound 0.004048 µM) was 0.515; with 17-AAG + Pictilisib (first compound 0.0128 µM) it was 0.451; in the test with 17-AAG + Pictilisib (first compound 0.04048 µM), 0.384; in the test with 17-AAG + Pictilisib (first compound 0.128 µM), 0.332; in the test with 17-AAG + Decitabine (first compound 0.00128 µM), 0.806; in the test with 17-AAG + Decitabine (first compound 0.004048 µM) it was 0.724. Moreover, the relative viability was 0.623 with 17-AAG + Decitabine (first compound 0.0128 µM); 0.47 with 17-AAG + Decitabine (first compound 0.04048 µM); 0.393 with 17-AAG + Decitabine (first compound 0.128 µM); 0.537 with 17-AAG + Palbociclib (first compound 0.00128 µM); 0.51 with 17-AAG + Palbociclib (first compound 0.004048 µM); 0.463 with 17-AAG + Palbociclib (first compound 0.0128 µM). In addition, the results for the relative viability with 17-AAG + Palbociclib (first compound 0.04048 µM) and in the test with 17-AAG + Palbociclib (first compound 0.128 µM) were 0.349 and 0.394, respectively.
In the case of LU99A, the relative viability with 17-AAG + Phenformin (first compound 0.00128 µM) is 0.725; with 17-AAG + Phenformin (first compound 0.004048 µM), 0.734; with 17-AAG + Phenformin (first compound 0.0128 µM), 0.468; in the test with 17-AAG + Phenformin (first compound 0.04048 µM) it was 0.225; with 17-AAG + Phenformin (first compound 0.128 µM), 0.116; with 17-AAG + Pictilisib (first compound 0.00128 µM) it was 0.308. Besides, the relative viability was determined as 0.377 in the test with 17-AAG + Pictilisib (first compound 0.004048 µM); 0.232 with 17-AAG + Pictilisib (first compound 0.0128 µM); 0.228 in the test with 17-AAG + Pictilisib (first compound 0.04048 µM); 0.144 with 17-AAG + Pictilisib (first compound 0.128 µM); 0.917 with 17-AAG + Decitabine (first compound 0.00128 µM); 0.915 in the test with 17-AAG + Decitabine (first compound 0.004048 µM). Besides, the relative viability with 17-AAG + Decitabine (first compound 0.0128 µM) amounted to 0.863; in the test with 17-AAG + Decitabine (first compound 0.04048 µM), 0.749; with 17-AAG + Decitabine (first compound 0.128 µM), 0.213; with 17-AAG + Palbociclib (first compound 0.00128 µM), 0.434; with 17-AAG + Palbociclib (first compound 0.004048 µM), 0.42; with 17-AAG + Palbociclib (first compound 0.0128 µM), 0.384. Further, the values for the relative viability with 17-AAG + Palbociclib (first compound 0.04048 µM) and with 17-AAG + Palbociclib (first compound 0.128 µM) were 0.454 and 0.137, respectively.
On to NCI-H1395, for which the relative viability was found to be 0.449 with 17-AAG + Phenformin (first compound 0.00128 µM); 0.425 with 17-AAG + Phenformin (first compound 0.004048 µM); 0.4 with 17-AAG + Phenformin (first compound 0.0128 µM); 0.358 in the test with 17-AAG + Phenformin (first compound 0.04048 µM); 0.324 with 17-AAG + Phenformin (first compound 0.128 µM); 0.659 in the test with 17-AAG + Pictilisib (first compound 0.00128 µM). The relative viability in the test with 17-AAG + Pictilisib (first compound 0.004048 µM) was 0.614; in the test with 17-AAG + Pictilisib (first compound 0.0128 µM), 0.381; in the test with 17-AAG + Pictilisib (first compound 0.04048 µM) it was 0.354; with 17-AAG + Pictilisib (first compound 0.128 µM) it was 0.435; in the test with 17-AAG + Decitabine (first compound 0.00128 µM), 0.611; in the test with 17-AAG + Decitabine (first compound 0.004048 µM), 0.694. Besides, the relative viability in the test with 17-AAG + Decitabine (first compound 0.0128 µM) came out at 0.568; with 17-AAG + Decitabine (first compound 0.04048 µM) it was 0.387; with 17-AAG + Decitabine (first compound 0.128 µM) it was 0.383; with 17-AAG + Palbociclib (first compound 0.00128 µM), 0.632; with 17-AAG + Palbociclib (first compound 0.004048 µM) it was 0.61; in the test with 17-AAG + Palbociclib (first compound 0.0128 µM), 0.532. For the same cell line, the relative viability with 17-AAG + Palbociclib (first compound 0.04048 µM) turned out to be 0.373; in the test with 17-AAG + Palbociclib (first compound 0.128 µM), 0.384.
As for NCI-H520, the relative viability in the test with 17-AAG + Phenformin (first compound 0.00128 µM) worked out at 0.617; in the test with 17-AAG + Phenformin (first compound 0.004048 µM) it was 0.511; in the test with 17-AAG + Phenformin (first compound 0.0128 µM) it was 0.406; with 17-AAG + Phenformin (first compound 0.04048 µM), 0.234; in the test with 17-AAG + Phenformin (first compound 0.128 µM), 0.165; with 17-AAG + Pictilisib (first compound 0.00128 µM), 0.275. For the same cell line, the relative viability with 17-AAG + Pictilisib (first compound 0.004048 µM) was found to be 0.254; in the test with 17-AAG + Pictilisib (first compound 0.0128 µM), 0.207; with 17-AAG + Pictilisib (first compound 0.04048 µM) it was 0.167; with 17-AAG + Pictilisib (first compound 0.128 µM), 0.161; with 17-AAG + Decitabine (first compound 0.00128 µM), 0.364; with 17-AAG + Decitabine (first compound 0.004048 µM), 0.555. The relative viability is 0.411 with 17-AAG + Decitabine (first compound 0.0128 µM); 0.16 with 17-AAG + Decitabine (first compound 0.04048 µM); 0.171 in the test with 17-AAG + Decitabine (first compound 0.128 µM); 0.232 with 17-AAG + Palbociclib (first compound 0.00128 µM); 0.228 with 17-AAG + Palbociclib (first compound 0.004048 µM); 0.175 in the test with 17-AAG + Palbociclib (first compound 0.0128 µM). For the same cell line, the relative viability was 0.153 in the test with 17-AAG + Palbociclib (first compound 0.04048 µM) and 0.133 with 17-AAG + Palbociclib (first compound 0.128 µM).
Take 201T: the relative viability stood at 0.484 in the test with 17-AAG + Phenformin (first compound 0.00128 µM); 0.391 in the test with 17-AAG + Phenformin (first compound 0.004048 µM); 0.341 with 17-AAG + Phenformin (first compound 0.0128 µM); 0.244 in the test with 17-AAG + Phenformin (first compound 0.04048 µM); 0.248 with 17-AAG + Phenformin (first compound 0.128 µM); 0.679 with 17-AAG + Pictilisib (first compound 0.00128 µM). In addition, the relative viability with 17-AAG + Pictilisib (first compound 0.004048 µM) came out at 0.667; in the test with 17-AAG + Pictilisib (first compound 0.0128 µM), 0.663; with 17-AAG + Pictilisib (first compound 0.04048 µM), 0.546; in the test with 17-AAG + Pictilisib (first compound 0.128 µM), 0.424; with 17-AAG + Decitabine (first compound 0.00128 µM) it was 0.842; in the test with 17-AAG + Decitabine (first compound 0.004048 µM), 0.838. In addition, the relative viability with 17-AAG + Decitabine (first compound 0.0128 µM) was 0.811; with 17-AAG + Decitabine (first compound 0.04048 µM), 0.804; in the test with 17-AAG + Decitabine (first compound 0.128 µM), 0.71; with 17-AAG + Palbociclib (first compound 0.00128 µM), 0.364; with 17-AAG + Palbociclib (first compound 0.004048 µM), 0.351; in the test with 17-AAG + Palbociclib (first compound 0.0128 µM) it was 0.353. Also, the values for the relative viability with 17-AAG + Palbociclib (first compound 0.04048 µM) and with 17-AAG + Palbociclib (first compound 0.128 µM) were 0.372 and 0.35, respectively.

(Values after the supplement of paper PMC10307832.)
